{"source": "patent US6469028B1", "about": "“Synthesis and use of retinoid compounds having negative hormone and/or anatgonist activities” (Allergan, Inc., priority 1995, dated 2002)", "key": {"ECE16-1 cells": {"tested_on": "ECE16-1 cells", "test": "Example 17: EGF dependent proliferation of ECE16-1 cells", "type": "cell-based", "conditions": "10 nM AGN 191183 and 0 nM AGN 193109, three days", "protocol": "ECE16-1 cells were seeded at a density of 1×10^4 cells per cm^2 in complete medium containing DMEM:F12 (3:1), nonessential amino acids, 5% FBS, 5 μg/ml transferring, 2 nM of 3,3′,5 triiodothyronine (thyroid hormone or “T3”), 0.1 nNM cholera toxin, 2 mM L-glutamine, 1.8×10^−4 M adenine and 10 ng/ml EGF. Cells were allowed to attach to plates overnight and then shifted to defined medium containing DMEM:F12 (3:1), 2 mM L-glutamine, nonessential amino acids, 0.1% bovine serum albumin, 1.8×10^−4 M adenine, 5 μg/ml transferring, 2 nM T3, 50 μg/ml ascorbic acid, 100 ug/ml streptomycin, 100 units/ml penicillin and 50 μg/ml gentamicin. Defined medium (DM) was supplemented with 10 ng/ml EGF. […] After three days of treatment, cells were harvested as described by Hembree et al. in Cancer Res. 54:3160 (1994) and cell numbers determined using a COULTER counter."}, "hairless mice [1]": {"tested_on": "hairless mice", "test": "Example 1: skin irritation by topical agonist, topical antagonist", "type": "in vivo", "conditions": "group B: AGN 191183 0.025 mg/kg/d topical alone, 5 days, scored to day 8, mean±SD", "protocol": "More particularly skin irritation was measured on a semiquantitative scale by the daily subjective evaluation of skin flaking and abrasions. A single number, the topical irritation score, summarizes the skin irritation induced in an animal during the course of an experiment. The topical irritation score is calculated as follows. The topical irritation score is the algebraic sum of a composite flaking score and a composite abrasion score. The composite scores range from 0-9 and 0-8 for flaking and abrasions, respectively, and take into account the maximum severity, the time of onset, and the average severity of the flaking and abrasions observed.\nThe severity of flaking is scored on a 5-point scale and the severity of abrasions is scored on a 4-point scale, with higher scores reflecting greater severity. The maximum severity component of the composite scores would be the highest daily severity score assigned to a given animal during the course of observation.\nFor the time of onset component of the composite score, a score ranging from 0 to 4 is assigned as follows:\nThe average severity component of the composite score is the sum of the daily flaking or abrasion scores divided by the number of observation days.\nTo calculate the composite flaking and abrasion scores, the average severity and time of onset scores are summed and divided by 2. The result is added to the maximal severity score. The composite flaking and abrasion scores are then summed to give the overall topical irritation score. Each animal receives a topical irritation score, and the values are expressed as the mean±SD of the individual scores of a group of animals. Values are rounded to the nearest integer.\nFemale hairless mice [Crl:SKH1-hrBR] […] Treatments are applied to the dorsal skin in a total volume of 4 ml/kg (˜0.1 ml). Mice were observed daily and scored for flaking and abrasions up to and including 3 days after the last treatment, i.e., day 8."}, "[2]": {"tested_on": "MRP-8 expression in primary foreskin keratinocytes", "test": "Example 20: MRP-8 expression in keratinocytes (RT-PCR)", "type": "cell-based, human", "conditions": "AGN 191183 10^−7 M or AGN 193109 10^−6 M, 3 days", "text": "Primary foreskin keratinocytes were isolated according to the procedure described by Nagpal et al. in J. Biol. Chem. 270:923 (1995) and cultured in keratinocyte growth medium (KGM) that was purchased from Clonetics. […] The mRNA was reverse transcribed into cDNA which then served as the template in a PCR amplification protocol using primers specific for either the glyceraldehyde phosphate dehydrogenase (GAPDH) housekeeping gene or MRP-8. The GAPDH primers had the sequences [NT] ID NO:6) and [NT] ID NO:7). The MRP-8 primers had the sequences [NT] ID NO:8) and [NT] ID NO:9). An aliquot from the MRP-8 amplification reaction (10 μl) was removed after every cycle of PCR amplification starting from 12 cycles and ending at 21 cycles. Similarly, an aliquot of the GAPDH amplification reaction was removed after every PCR cycle starting at 15 cycles and ending at 24 cycles. […] The staining intensity of the amplification products served as a quantitative measure of the amount of starting MRNA specific for the given primer set."}, "guinea pigs": {"tested_on": "guinea pigs", "test": "Example 5: premature epiphyseal plate closure (bone toxicity)", "type": "in vivo", "conditions": "AGN 191183 0.06 mg/ml, intraperitoneal osmotic pump, 14 days, n=4", "protocol": "The osmotic pumps are designed by the manufacturer to deliver ˜5 μl of solution per hour continuously for 14 days.\nThe animals were euthanized by carbon dioxide asphyxiation 14 days after implantation. The left tibia was removed and placed in 10% buffered formalin. The tibias were decalcified by exposure to a formic acid/formalin solution for 3-4 days, and paraffin sections were prepared. Sections were stained with hematoxylin and eosin by standard methods. The proximal tibial epiphyseal plate was examined and scored as closed or not closed. Epiphyseal plate closure is defined for this purpose as any interruption of the continuity of the epiphyseal growth plate cartilage, i.e., replacement by bone and/or fibroblastic tissue."}, "CaSki cells": {"tested_on": "CaSki cells", "test": "Example 18: proliferation of CaSki cells", "type": "cell-based", "protocol": "EGF was added to the retinoid treated cultures to give a final concentration of 20 ng/ml. […] The media was replaced with fresh media and each of the two retinoid compounds, as appropriate, every day. Cell numbers were determined using a COULTER counter as described above."}, "hairless mice [3]": {"tested_on": "hairless mice", "test": "Example 2: skin irritation and weight loss by oral agonist, topical antagonist", "type": "in vivo", "conditions": "group B: oral AGN 191183 0.26 mg/kg/d alone, 4 days", "protocol": "Mice were simultaneously treated topically on the dorsal skin with vehicle (97.6% acetone/2.4% dimethylsulfoxide) or solutions of AGN 193109 in vehicle (6 ml/kg). Specific doses for the different treatment groups are give in Table 8. Treatments were administered daily for 4 consecutive days. Mice were weighed and graded for topical irritation daily as described in Example 1 up to and including 1 day after the last treatment. Percent body weight change is calculated by subtracting […], dividing by initial body weight, and multiplying by 100%. Topical irritation scores are calculated as described in Example 1."}, "[4]": {"tested_on": "stromelysin-1 expression in primary foreskin keratinocytes", "test": "Example 21: stromelysin-1 expression in keratinocytes (RT-PCR)", "type": "cell-based, human", "conditions": "AGN 191183 10^−7 M or AGN 193109 10^−6 M, 24 hours", "protocol": "Total RNA prepared from mock-treated and retinoid-treated keratinocytes was reverse transcribed and the resulting cDNA was PCR amplified using β-actin or stromelysin-1 oligo primers exactly as described by Nagpal et al. in J. Biol. Chem. 270:923 (1995)), the disclosure of which has been incorporated by reference. A sample (10 μl) from the PCR amplification reaction was removed after every three cycles starting from 18 cycles of PCR amplification. The sample was electrophoresed on a 2% agarose gel and detected after ethidium bromide staining."}}, "data": [{"smiles": "C/C(=C\\c1ccc(C(=O)O)cc1)c1ccc2c(c1)C(C)(C)CCC2(C)C", "note": "[AGN 191183, 4-[(E)-2-(5,6,7,8-tetrahydro-5,5,8,8-tetramethylnaphthalen-2-yl)propen-1-yl]benzoic acid, reference compound]", "values": [{"measurement": "EGF mediated proliferation", "setting": "ECE16-1 cells", "result": "completely inhibited EGF mediated proliferation"}, {"measurement": "Topical Irritation Score", "setting": "hairless mice [1]", "result": "8 ± 2"}, {"measurement": "MRP-8 mRNA expression", "setting": "[2]", "result": "inhibited"}, {"measurement": "epiphyseal plate closure", "setting": "guinea pigs", "result": "All four of the AGN 191183-treated guinea pigs showed partial or complete epiphyseal plate closure"}, {"measurement": "antiproliferative activity", "setting": "CaSki cells; AGN 191183 10^−10 to 10^−6 M, EGF 20 ng/ml, three days", "result": "no antiproliferative activity"}, {"measurement": "increase in the proliferation rate", "setting": "CaSki cells; ten thousand fold increase in AGN 191183 concentration", "result": "~20", "unit": "%"}, {"measurement": "Topical Irritation Score", "setting": "hairless mice [3]", "result": "8 ± 1"}, {"measurement": "% Weight Gain or (Loss)", "setting": "hairless mice [3]; day 5 vs day 1, parentheses = loss", "result": "(21 ± 6) %"}, {"measurement": "stromelysin-1 mRNA expression", "setting": "[4]", "result": "inhibited"}]}]}
